Test system: sGC enzyme
Assay: cGMP GloSensor cell-based assay, 384-well format (HEK293)
Parameters: species or system human
Settings: HEK293 GloSensor 40F cGMP cells, 10 μM DETA-NONOate, geometrical mean; read-out: Glo EC50
Text: Human embryonic kidney cells (HEK293) cells expressing GloSensor™ 40F cGMP (Part No: CS182801, Promega) were used to evaluate the activity of test compounds. The luminescent biosensors (engineered luciferase) that were incorporated into these cells detect cGMP formed by the compounds stimulating the sGC enzyme and emit luminescence.
cGMP GloSensor cells were maintained in Dulbecco's Modification of Eagle's Medium (DMEM) supplemented with fetal bovine serum (FBS, 10% final) and hygromycine (200 ug/ml). The day before assay, cells were plated in DMEM with 10% FBS in a 50 μL volume at a density of 1.5×10^4 cells/well in a poly-D-lysine coated 384-well flat white-bottom plate (Corning Cat No 35661). Cells were incubated overnight at 37° C. in a humidified chamber with 5% CO2. The next day, medium was removed and cells were replaced with 40 ul/well of GloSensor™, 2 mM (Promega Cat No E1291). Cells were treated for 90 minutes at 25° C. to allow the substrate to equilibrate in the cells. Test compounds and Diethylenetriamine NONOate (DETA-NONOate) was diluted to 3 mM (20×) in serum-free CO2 independent medium and serially diluted at 4× dilutions to create 5× dose curve from which 10 ul was added to the wells (x μM concentration for test compound solution and 10 μM concentration for DETA-NONOate solution; wherein x is one of the following final concentrations: 30 μM, 7.5 μM, 1.9 μM, 469 nM, 117 nM, 29.3 nM, 7.3 nM, 1.83 nM, 0.46 nM, 0.11 nM, 0.03 nM) For the kinetics studies, luminescense was measured right away for 0.2 sec per well with Envision (Perkin Elmer). For endpoint SAR screening, data were collected after 55 min incubation at room temperature.
Concentration response data were analyzed using a 4-parameter fit (log (agonist) vs. response-variable slope). The EC50 was interpolated from the curve fit and is defined as the concentration at which the compound elicits 50% of its maximal response. When the experiment was carried out multiple times for a given compound, the geometrical mean of all experiments is reported.

Row | Compound | EC50
1 | Oc1nc(-c2cn3ccnc3c(Cc3ccccc3)n2)ncc1F [Compound I-2, 2-(8-Benzylimidazo[1,2-a]pyrazin-6-yl)-5-fluoropyrimidin-4-ol] | 0.1 to 1 µM
2 | Oc1nc(-c2cn3c(F)cnc3c(Cc3cc(F)ccc3F)n2)ncc1F [Compound I-5] | ≤ 0.1 µM
3 | Cc1cc(F)c(Cc2nc(-c3nccc(O)n3)cn3ccnc23)cc1F [Compound I-15, 2-(8-(2,5-difluoro-4-methylbenzyl)imidazo[1,2-a]pyrazin-6-yl)pyrimidin-4-ol] | 0.1 to 1 µM
4 | Cc1cc(F)c(Cc2nc(-c3ncc(F)c(O)n3)cn3c(F)cnc23)cc1F [Compound I-18] | ≤ 0.1 µM
5 | Cc1cc(F)c(Cc2nc(-c3ncc(F)c(O)n3)cn3ccnc23)cc1F [Compound I-14, 5-fluoro-2-(8-(2,5-difluoro-4-methylbenzyl)imidazo[1,2-a]pyrazin-6-yl)pyrimidin-4-ol] | ≤ 0.1 µM
6 | Oc1nc(-c2cn3ccnc3c(Cc3cc(F)ccc3F)n2)ncc1Cl [Compound I-16, 5-chloro-2-(8-(2,5-difluorobenzyl)imidazo[1,2-a]pyrazin-6-yl)pyrimidin-4-ol] | ≤ 0.1 µM
7 | Oc1nc(-c2cn3ccnc3c(Cc3cc(F)ccc3F)n2)ncc1F [Compound I-20, 5-fluoro-2-(8-(2,5-difluorobenzyl)imidazo[1,2-a]pyrazin-6-yl)pyrimidin-4-ol] | ≤ 0.1 µM

Now from value to compound:

Row | EC50 | Compound
8 | 0.1 to 1 µM | Oc1nc(-c2cn3ccnc3c(Cc3cccc(F)c3F)n2)ncc1F [Compound I-4, 2-(8-(2,3-Difluorobenzyl)imidazo[1,2-a]pyrazin-6-yl)-5-fluoropyrimidin-4-ol]
9 | 0.1 to 1 µM | Oc1nc(-c2cn3ncnc3c(Cc3ccccc3F)n2)ncc1F [Compound I-23]
10 | 0.1 to 1 µM | Cc1cc(F)c(Cc2nc(-c3ncc(F)c(O)n3)cn3ncnc23)cc1F [Compound I-19, 5-Fluoro-2-(8-(2,5-difluoro-4-methylbenzyl)-[1,2,4]triazolo[1,5-a]pyrazin-6-yl)pyrimidin-4-ol]
11 | 0.1 to 1 µM | Oc1nc(-c2cn3ccnc3c(Cc3ccccc3F)n2)ncc1F [Compound I-21]
